Test results as given in the NIST ThermoML archive (doi:10.1021/je100615j).

Experiment: mn = molality of the nth substance listed, in mol/kg
Conditions: 101.3 kPa, Liquid, Vibrating tube method

O=[N+]([O-])[O-].O=[N+]([O-])[O-].O=[N+]([O-])[O-].[Ce+3] [cerium nitrate] + O
mass density [kg/m3]
Conditions	m1 = 0.5112	m1 = 1.031	m1 = 1.555	m1 = 1.997	m1 = 3.131	m1 = 3.968	m1 = 4.462
293.15 K	1131.2	1252.8	1361.9	1446.2	1633.2	1746.4	1806
298.15 K	1129.3	1250.2	1358.8	1443.1	1629.1	1742.4	1801.8
308.15 K	1124.7	1244.4	1352	1435.7	1620.5	1733.1	1792.2

O=[N+]([O-])[O-].O=[N+]([O-])[O-].O=[N+]([O-])[O-].[Nd+3] [neodymium(III) nitrate] + O
mass density [kg/m3]
Conditions	m1 = 0.522	m1 = 1.021	m1 = 1.555	m1 = 2.093	m1 = 3.086	m1 = 4.124	m1 = 4.297
293.15 K	1136.1	1255.1	1369.8	1474.7	1642.1	1785.9	1807
298.15 K	1134.2	1252.5	1366.7	1471.1	1637.8	1781.1	1802.7
308.15 K	1129.6	1246.7	1359.9	1463.5	1628.8	1771.4	1792.8

O=[N+]([O-])[O-].O=[N+]([O-])[O-].O=[N+]([O-])[O-].[Y+3] [yttrium nitrate] + O
mass density [kg/m3]
Conditions	m1 = 0.4989	m1 = 0.9965	m1 = 1.497	m1 = 1.982	m1 = 2.947	m1 = 3.945	m1 = 4.957
293.15 K	1105.5	1202.6	1290.8	1368.7	1502.8	1615.7	1708.9
298.15 K	1103.5	1200.2	1287.8	1365.4	1498.9	1611.4	1704.3
308.15 K	1099.2	1194.7	1281.4	1358.2	1490.5	1602.2	1694.7
